Like-named read-outs stand apart in the source and are kept apart here.
Key:
[1] = Antagonism to the reserpine induced syndrome (ptosis, rectal temperature); assay type: in vivo; design: Ptosis: scale not given here
[2] = system: reserpinized swimming rat; assay: Antireserpine effect in a behavior test, swimming rat; assay type: in vivo
albino male mice [3] = assay: Spontaneous behavior, motor coordination, muscular tension and nociceptive reflexes; assay type: in vivo; settings: up to 200 mg/kg i.v., observation 5 hours
Description: Among the compounds of the invention, 4H-1,3-benzoxazin-2-one-3-[N-(β-hydroxyethyl)-piperazino-methyl]-acetohydroxamic acid has been particularly studied and compared with 4H-1,3-benzoxazin-2-one-3-acetohydroxamic acid.

[4] = Highest tolerated intraperitoneal dose; settings: in vivo, ip
[5] = Acute toxicity (LD50), single oral and intravenous administration; assay type: in vivo, albino male mice; settings: mouse, in vivo, single administration, within 48 hours
Procedure: (§1) The acute toxicity (LD50), determined on albino male mice (weight 20-22 g) by a single oral and intravenous administration, is settled within 48 hours.

albino male mice [6] = assay: as above; assay type: in vivo; settings: intravenous route
Procedure: as §1

[7] = 25.0 mg/kg intraperitoneal, + R (reserpine)
[8] = 50.0 mg/kg intraperitoneal, + R (reserpine)
[9] = 100.0 mg/kg intraperitoneal, + R (reserpine)
[10] = 25 mg/kg intraperitoneal, + R (reserpine)
[11] = 50 mg/kg intraperitoneal, + R (reserpine)
[12] = Table 4, 50 mg/kg intraperitoneal, reserpine not stated
[13] = reserpine alone, 3.0 mg/kg intraperitoneal

O=C(CN1Cc2ccccc2OC1=O)N(O)CN1CCN(CCO)CC1 [4H-1,3-benzoxazin-2-one-3-[N-(β-hydroxyethyl)piperazinomethyl] -acetohydroxamic acid]
Ptosis [1, 7]: 24
Rectal temperature [1, 7]: 33.1 °C
Ptosis [1, 8]: 19
Rectal temperature [1, 8]: 35.6 °C
Ptosis [1, 9]: 2
Rectal temperature [1, 9]: 37.6 °C
antagonizing the hypothermia induced by reserpine ([1]; in words, Table 1): most active
antagonizing the ptosis induced by reserpine ([1]; in words, Table 1): most active
Average time to get out of the basin [2, 10]: 28 s
Number of the animals which do not get out [2, 10]: 0/10
getting out of a basin full of water ([2]; in words, pretreated plus reserpine, versus control animals): manage to get out of the basin within a period of time slightly longer than that of the control animals
motor apparatus coordination (albino male mice [3]): does not modify
muscular tension (albino male mice [3]): does not modify
nociceptive reflexes (albino male mice [3]): does not modify
spontaneous behavior (albino male mice [3]): does not modify
MTD ([4]; read-out: tolerated up to dose): ≥ 300 mg/kg
LD50 at 48 h ([5]; po, per os): > 3000 mg/kg
LD50 at 48 h ([5]; intravenous): 576 mg/kg
times less toxic than Imipramine (albino male mice [6]): about 20 times
less toxic than 4H-1,3-benzoxazin-2-one-3-acetohydroxamic acid (albino male mice [6]; in words): about half again less toxic

O=C(CN1Cc2ccccc2OC1=O)NO [4H-1,3-benzoxazin-2-one-3-acetohydroxamic acid]
Ptosis [1, 8]: 29
Rectal temperature [1, 8]: 36.0 °C
Ptosis [1, 9]: 5
Rectal temperature [1, 9]: 38.1 °C
Average time to get out of the basin [2, 11]: 25 s
Number of the animals which do not get out [2, 11]: 0/10
LD50 at 48 h ([5]; po, per os): ~2000 mg/kg
LD50 at 48 h ([5]; intravenous): 350 mg/kg

CCN(CC)CCN(CC)CN(O)C(=O)CN1Cc2ccccc2OC1=O [Example 2, 4H-1,3-benzoxazin-2-one-3-[(N,N,N'triethyl)-ethylenediaminomethyl]-acetohydroxamic acid]
Average time to get out of the basin [2, 12]: 10 s
Number of the animals which do not get out [2, 12]: 1/10
test results ([2]; in words): good test results
LD50 at 48 h ([5]; po, per os): 2550 mg/kg
LD50 at 48 h ([5]; intravenous): 328 mg/kg

CN(C)CCCN1c2ccccc2CCc2ccccc21 [Imipramine, reference compound]
Ptosis [1, 8]: 29
Rectal temperature [1, 8]: 36.0 °C
Average time to get out of the basin [2, 10]: 40 s
Number of the animals which do not get out [2, 10]: 7/10
MTD ([4]; read-out: highest tolerated dose): 50 mg/kg

COC(=O)[C@H]1[C@H]2C[C@@H]3c4[nH]c5cc(OC)ccc5c4CCN3C[C@H]2C[C@@H](OC(=O)c2cc(OC)c(OC)c(OC)c2)[C@@H]1OC [Reserpine, reference compound]
Ptosis [1, 13]: 40
Rectal temperature [1, 13]: 32.1 °C
getting out of a basin full of water ([2]; in words, reserpinized animals): can no longer get out of a basin full of water
Number of the animals which do not get out ([2]; reserpine alone, 5 mg/kg intraperitoneal): 10/10

Source: patent publication US3948890A, “4H-1,3-benzoxazin-2-one-3-acetohydroxamic acid derivatives” (Farmitalia Societa Farmaceutica Italia, priority 1971, dated 1976)
